According to publication PMC12028158, “Synthesis and In Vitro Evaluation of the Anticancer Effect of Novel Phosphonium Vindoline Derivatives” (International Journal of Molecular Sciences, 2025):
Read-outs that look alike come from different tables or passages of the source.

Columns and labels:
Format in all cases: cell-based
Melanoma panel = assay: NCI60 five-dose screen, panel mean; conditions: Homo sapiens, read-out: GI50 Mean
[1] = test system: Non-small Cell Lung Cancer panel; assay: NCI60 five-dose screen, panel mean; conditions: Homo sapiens, read-out: GI50 Mean
MALME-3M = assay: NCI60 one-dose screen; conditions: Homo sapiens, read-out: Growth percent
CAKI-1 = assay: NCI60 five-dose screen; conditions: Homo sapiens
SK-MEL-2 = assay: NCI60 one-dose screen; conditions: Homo sapiens
LOX IMVI = assay: NCI60 one-dose screen; conditions: Homo sapiens, read-out: Growth percent
HT29 = assay: NCI60 one-dose screen; conditions: Homo sapiens
MDA-MB-435 = assay: NCI60 five-dose screen; conditions: Homo sapiens
ACHN = assay: NCI60 five-dose screen; conditions: Homo sapiens
T-47D = assay: NCI60 one-dose screen; conditions: Homo sapiens, T47D, read-out: Growth percent
MDA-MB-468 = assay: NCI60 one-dose screen; conditions: Homo sapiens
A498 = assay: NCI60 five-dose screen; conditions: Homo sapiens
HOP-92 [2] = assay: NCI60 one-dose screen; conditions: Homo sapiens
NCI-H522 [3] = assay: NCI60 one-dose screen; conditions: Homo sapiens
NCI-H460 = assay: NCI60 five-dose screen; conditions: Homo sapiens
SW-620 = assay: NCI60 one-dose screen; conditions: Homo sapiens
MOLT-4 = assay: NCI60 five-dose screen; conditions: Homo sapiens
KM12 = assay: NCI60 five-dose screen; conditions: Homo sapiens
U251 = assay: NCI60 five-dose screen; conditions: Homo sapiens
DU-145 = assay: NCI60 one-dose screen; conditions: Homo sapiens
M14 = assay: NCI60 five-dose screen; conditions: Homo sapiens
OVCAR-4 [4] = assay: NCI60 five-dose screen; conditions: Homo sapiens
786-0 = assay: NCI60 one-dose screen; conditions: Homo sapiens
A549/ATCC = assay: NCI60 five-dose screen; conditions: Homo sapiens
TK-10 = assay: NCI60 one-dose screen; conditions: Homo sapiens
Renal Cancer panel = assay: NCI60 five-dose screen, panel mean; conditions: Homo sapiens, read-out: GI50 Mean
SK-OV-3 [5] = assay: NCI60 five-dose screen; conditions: Homo sapiens
NCI-H226 = assay: NCI60 one-dose screen; conditions: Homo sapiens
COLO 205 = assay: NCI60 one-dose screen; conditions: Homo sapiens
HCC-2998 = assay: NCI60 five-dose screen; conditions: Homo sapiens
HOP-92 [6] = assay: NCI60 five-dose screen; conditions: Homo sapiens
HL-60(TB) = assay: NCI60 five-dose screen; conditions: Homo sapiens
NCI-H23 = assay: NCI60 one-dose screen; conditions: Homo sapiens
SK-OV-3 [7] = assay: NCI60 one-dose screen; conditions: Homo sapiens
RXF 393 = assay: NCI60 five-dose screen; conditions: Homo sapiens
SK-MEL-28 = assay: NCI60 five-dose screen; conditions: Homo sapiens
RPMI-8226 = assay: NCI60 one-dose screen; conditions: Homo sapiens
HCT-15 = assay: NCI60 one-dose screen; conditions: Homo sapiens
OVCAR-5 [8] = assay: NCI60 five-dose screen; conditions: Homo sapiens
OVCAR-5 [9] = assay: NCI60 one-dose screen; conditions: Homo sapiens
UACC-257 = assay: NCI60 five-dose screen; conditions: Homo sapiens
[10] = test system: 60 human tumor cell lines (NCI60); assay: NCI60 one-dose screen, overall mean; conditions: Homo sapiens, read-out: Mean growth percent
NCI-H522 [11] = assay: NCI60 five-dose screen; conditions: Homo sapiens
OVCAR-4 [12] = assay: NCI60 one-dose screen; conditions: Homo sapiens
MDA-MB-231/ATCC = assay: NCI60 one-dose screen; conditions: Homo sapiens

CC[C@]12C=CCN3CC[C@@]4(c5ccc(OC)cc5N(C)[C@H]4[C@@](O)(C(=O)OC)[C@@H]1OC(=O)CCCC[P+](c1ccc(F)cc1)(c1ccc(F)cc1)c1ccc(F)cc1)[C@@H]32 [10c]
GI50 (Melanoma panel; mean over Melanoma panel): 12.5 µM
GI50 ([1]; mean over Non-small Cell Lung Cancer panel): 24.3 µM
activity at 10 µM (MALME-3M; MALME-3M, 10 μM, one-dose): -55.9%
GI50 (CAKI-1; CAKI-1, Renal Cancer, read-out: GI50): > 100 µM
activity at 10 µM (SK-MEL-2; SK-MEL-2, 10 μM, one-dose, read-out: Growth percent): -54%
activity at 10 µM (LOX IMVI; 10 μM, one-dose): 25%
activity at 10 µM (HT29; HT-29, HT29, 10 μM, one-dose, read-out: Growth percent): 15.9%
GI50 (MDA-MB-435; MDA-MB-435, Melanoma, read-out: GI50): 12.9 µM
GI50 (ACHN; Renal Cancer, read-out: GI50): > 100 µM
activity at 10 µM (T-47D; T-47D, 10 μM, one-dose): 12.8%
activity at 10 µM (MDA-MB-468; MDA-MB-468, 10 μM, one-dose, read-out: Growth percent): -74.6%
GI50 (A498; A498, Renal Cancer, read-out: GI50): > 100 µM
activity at 10 µM (HOP-92 [2]; HOP-92, 10 μM, one-dose, read-out: Growth percent): -12.2%
activity at 10 µM (NCI-H522 [3]; NCI-H522, 10 μM, one-dose, read-out: Growth percent): -11.6%
GI50 (NCI-H460; NCI-H460, Non-small Cell Lung Cancer, read-out: GI50): 29.4 µM
activity at 10 µM (SW-620; SW-620, 10 μM, one-dose, read-out: Growth percent): 36.9%
GI50 (MOLT-4; MOLT-4, Leukemia, read-out: GI50): 14.7 µM
GI50 (KM12; KM12, KM12, Colon Cancer, read-out: GI50): 13.4 µM
GI50 (U251; U-251, U251, CNS Cancer, read-out: GI50): 10.7 µM
activity at 10 µM (DU-145; DU-145, 10 μM, one-dose, read-out: Growth percent): 36.4%
GI50 (M14; M14, Melanoma, read-out: GI50): 14.7 µM
GI50 (OVCAR-4 [4]; OVCAR-4, Ovarian Cancer, read-out: GI50): 25.1 µM
activity at 10 µM (786-0; 786-0, 10 μM, one-dose, read-out: Growth percent): 87%
GI50 (A549/ATCC; A549/ATCC, Non-small Cell Lung Cancer, read-out: GI50): 33.8 µM
activity at 10 µM (TK-10; TK-10, 10 μM, one-dose, read-out: Growth percent): 70.2%
GI50 (Renal Cancer panel; mean over Renal Cancer panel): 56.7 µM
GI50 (SK-OV-3 [5]; SK-OV-3, Ovarian Cancer, read-out: GI50): 23.5 µM
activity at 10 µM (NCI-H226; NCI-H226, 10 μM, one-dose, read-out: Growth percent): 38%
activity at 10 µM (COLO 205; COLO 205, 10 μM, one-dose, read-out: Growth percent): -43.4%
GI50 (HCC-2998; HCC-2998, Colon Cancer, read-out: GI50): 12.5 µM
GI50 (HOP-92 [6]; HOP-92, Non-small Cell Lung Cancer, read-out: GI50): 6.32 µM
GI50 (HL-60(TB); HL-60, HL-60(TB), Leukemia, read-out: GI50): 2.11 µM
activity at 10 µM (NCI-H23; NCI-H23, 10 μM, one-dose, read-out: Growth percent): 23.6%
activity at 10 µM (SK-OV-3 [7]; SK-OV-3, 10 μM, one-dose, read-out: Growth percent): 41.4%
GI50 (RXF 393; RXF 393, Renal Cancer, read-out: GI50): 13.3 µM
GI50 (SK-MEL-28; SK-MEL-28, Melanoma, read-out: GI50): 8.28 µM
activity at 10 µM (RPMI-8226; RPMI-8226, 10 μM, one-dose, read-out: Growth percent): 4.14%
activity at 10 µM (HCT-15; HCT-15, 10 μM, one-dose, read-out: Growth percent): 102%
GI50 (OVCAR-5 [8]; OVCAR-5, Ovarian Cancer, read-out: GI50): 29.1 µM
activity at 10 µM (OVCAR-5 [9]; OVCAR-5, 10 μM, one-dose, read-out: Growth percent): 49.7%
GI50 (UACC-257; UACC-257, UACC-257, Melanoma, read-out: GI50): 5.59 µM
activity at 10 µM ([10]; mean over 60 cell lines, 10 μM, one-dose): 17%
GI50 (NCI-H522 [11]; NCI-H522, Non-small Cell Lung Cancer, read-out: GI50): 5.44 µM
activity at 10 µM (OVCAR-4 [12]; OVCAR-4, 10 μM, one-dose, read-out: Growth percent): 33.1%
activity at 10 µM (MDA-MB-231/ATCC; MDA-MB-231/ATCC, 10 μM, one-dose, read-out: Growth percent): 2.85%

CC[C@]12C=CCN3CC[C@@]4(c5ccc(OC)cc5N(C)[C@H]4[C@@](O)(C(=O)OC)[C@@H]1OC(=O)CCCC[P+](C1CCCCC1)(C1CCCCC1)C1CCCCC1)[C@@H]32 [10d]
GI50 (Melanoma panel): 1.96 µM
GI50 [1]: 2.95 µM
activity at 10 µM (MALME-3M; Malme-3M): -95.9%
GI50 (CAKI-1; CAKI-1): 16.7 µM
activity at 10 µM (SK-MEL-2; SK-MEL-2, read-out: Growth percent): -88%
activity at 10 µM (LOX IMVI): -96.1%
activity at 10 µM (HT29; HT-29, read-out: Growth percent): -24%
GI50 (MDA-MB-435; MDA-MB-435): 2.62 µM
GI50 (ACHN): 16 µM
activity at 10 µM (T-47D): 3.83%
activity at 10 µM (MDA-MB-468; MDA-MB-468, read-out: Growth percent): -79%
GI50 (A498; A498): 13.3 µM
activity at 10 µM (HOP-92 [2]; HOP-92, read-out: Growth percent): -44.5%
activity at 10 µM (NCI-H522 [3]; NCI-H522, read-out: Growth percent): -71.8%
GI50 (NCI-H460; NCI-H460): 2.71 µM
activity at 10 µM (SW-620; SW-620, read-out: Growth percent): 2.08%
GI50 (MOLT-4; MOLT-4): 1.72 µM
GI50 (KM12; KM12): 1.72 µM
GI50 (U251; U-251): 0.64 µM
activity at 10 µM (DU-145; DU-145, read-out: Growth percent): 9.57%
GI50 (M14; M14): 2.2 µM
GI50 (OVCAR-4 [4]; OVCAR-4): 2.72 µM
activity at 10 µM (786-0; 786-0, read-out: Growth percent): -36%
GI50 (A549/ATCC; A549): 3.13 µM
activity at 10 µM (TK-10; TK-10, read-out: Growth percent): -64.1%
GI50 (Renal Cancer panel): 8.36 µM
GI50 (SK-OV-3 [5]; SK-OV-3): 2.28 µM
activity at 10 µM (NCI-H226; NCI-H226, read-out: Growth percent): -22%
activity at 10 µM (COLO 205; COLO 205, read-out: Growth percent): -76.6%
GI50 (HCC-2998; HCC 2998): 1.31 µM
GI50 (HOP-92 [6]; HOP-92): 1.02 µM
GI50 (HL-60(TB); HL-60): 0.293 µM
activity at 10 µM (NCI-H23; NCI-H23, read-out: Growth percent): -9.66%
activity at 10 µM (SK-OV-3 [7]; SK-OV-3, read-out: Growth percent): -22.2%
GI50 (RXF 393; RXF 393): 1.24 µM
GI50 (SK-MEL-28; SK-MEL-28): 1.38 µM
activity at 10 µM (RPMI-8226; RPMI-8226, read-out: Growth percent): -45%
activity at 10 µM (HCT-15; HCT-15, read-out: Growth percent): 75.2%
GI50 (OVCAR-5 [8]; OVCAR-5): 3.19 µM
activity at 10 µM (OVCAR-5 [9]; OVCAR-5, read-out: Growth percent): 5.84%
GI50 (UACC-257; UACC-257): 1.57 µM
activity at 10 µM ([10]; 60 cell): -36.6%
GI50 (NCI-H522 [11]; NCI-H522): 0.642 µM
activity at 10 µM (OVCAR-4 [12]; OVCAR-4, read-out: Growth percent): 12.4%
activity at 10 µM (MDA-MB-231/ATCC; MDA-MB-231, read-out: Growth percent): -92.8%
